One molecule from patent publication US20040185110A1, “Formulations of low solubility bioactive agents and processes for making the same” (priority 2002, published 2004) can be followed below.

The nature of this data set: Solubility of Compound A. The class given is physicochemical. As for the experimental part:
The present invention addresses the prior art issues of low bioavailability of certain drugs such as COX-2 selective inhibitors useful for the treatment of, for example, arthritis and rheumatic pain. […] Compound A, a COX-2 selective inhibitor, is a white to off-white odorless crystalline, anhydrous powder. At room temperature it is soluble in methylene chloride, and acetonitrile. […] The aqueous solubility of the drug is less than 2 µg/mL at 22 degrees Celsius at pH 6.2.

`CS(=O)(=O)c1ccc(/C(=C2\CCOC2=O)c2ccc(Br)cc2)cc1` [Compound A, (Z)-3-[1-(4-bromophenyl)-1-(4-methylsulfonylphenyl)methylidine]-dihydrofuran-2-one]: where the note is “room temperature”, the “solubility in methylene chloride, and acetonitrile” value is recorded as “soluble”. Besides, the solubility in water result (water) is listed as “poorly soluble”.
